Common to all, as to assay: NCI anticancer screen, dose series, 48 h
The subject of assay [1] is A498.
For assay [2], the system named is A549.
The subject of assay [3] is HCC 2998.
In assay [4] the test system is MCF7.
In assay [5] the test system is MDA-MB-231.
For assay [6], the system named is MDA-MB-435.
Assay [7] deals with NCI-H226.
Assay [8] has as its system NCI/ADR-RES.
Assay [9] concerns OVCAR-4.
The test system of assay [10] is PC-3.
Assay [11] concerns SR.
Assay [12] relates to T47D.
In assay [13] the test system is BT-549.
For assay [14], the system named is CAKI-1.
The test system of assay [15] is M14.
Assay [16] concerns OVCAR-3.
In assay [17] the test system is SF-539.
Assay [18] deals with DMS-273.
Assay [19] relates to HOP-18.
Assay [20] has as its system KM-20L2.

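Grown in 96-well plates, cells were treated for 48 hours with each compound at five concentrations. Insufficient inhibition: endpoint recorded as highest concentration tested. GI50 = concentration required for 50% inhibition of growth.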 Active and inactive are the calls of the source. Cut-off read from the data, not from the text of the source: active = GI50 up to about 1.1 µM and inactive = higher. Where only a bound is given, the exact number is not on record here.

Turning to `Cc1ccc(S(=O)(=O)NCCSS(=O)(=O)c2ccc(C)cc2)cc1`, the GI50 was 11.3 µM (inactive) in assay [1]; 25.9 µM (inactive) in [2]; 62.5 µM (inactive) in assay [3]; 22.3 µM (inactive) in assay [4]; 37.7 µM (inactive) in assay [5]; 22.3 µM (inactive) in assay [6]. The GI50 is 24.3 µM (inactive) in [7]; 25.8 µM (inactive) in assay [8]; > 100 µM (inactive) in [9]; 27.6 µM (inactive) in assay [10]; 13.9 µM (inactive) in assay [11]; 27.7 µM (inactive) in assay [12].

Take `O=C1CCCC/C1=C1/SC(=N/c2ccccc2)/C(=N\c2ccccc2)N1c1ccccc1`: the GI50 in assay [1] was > 100 µM (inactive); in [13], > 100 µM (inactive); in assay [14] it was > 100 µM (inactive); in assay [3] it was > 100 µM (inactive); in assay [15], > 100 µM (inactive); in assay [4] it was 68.7 µM (inactive). Moreover, the GI50 is > 100 µM (inactive) in assay [5]; > 10 µM (inactive) in assay [6]; 23.4 µM (inactive) in assay [7]; > 100 µM (inactive) in assay [8]; 40.4 µM (inactive) in assay [16]; > 10 µM (inactive) in [10]. Further, the GI50 in assay [11] and in assay [12] was > 100 µM (inactive) throughout.

`O=c1c(-c2ccccc2)c(SCCN2CCOCC2)n(-c2ccccc2)c(=S)n1-c1ccccc1`: the GI50 in assay [1] was > 100 µM (inactive); in [13], > 100 µM (inactive); in assay [14], 52 µM (inactive); in assay [3], > 100 µM (inactive); in assay [4], 80.9 µM (inactive); in assay [5] it was 83.9 µM (inactive). Further, the GI50 was > 100 µM (inactive) in [6]; 35.3 µM (inactive) in assay [7]; > 100 µM (inactive) in [8]; > 100 µM (inactive) in [16]; 32.1 µM (inactive) in assay [9]; > 100 µM (inactive) in assay [10]. Moreover, the GI50 in [17] and in assay [11] was > 100 µM (inactive) in each case.

Consider `CCNC(=S)NNC(=O)c1nsc2ccccc12`, for which the GI50 in assay [2] was > 100 µM (inactive); in [18], 97.5 µM (inactive); in [3] it was > 100 µM (inactive); in assay [19], 23.1 µM (inactive); in assay [20], 64.9 µM (inactive); in assay [15], > 100 µM (inactive). The GI50 is 49.1 µM (inactive) in assay [16], > 100 µM (inactive) in assay [9], > 100 µM (inactive) in [17] and 64 µM (inactive) in assay [11].

Consider `O=C(Nc1ccc([N+](=O)[O-])cc1)C(=O)C(C(=O)c1ccccc1F)C1OC(=O)c2ccccc21` (stereo unspecified), for which the GI50 in assay [1] was 80.9 µM (inactive); in [2] it was 67.6 µM (inactive); in assay [14], 59.4 µM (inactive); in assay [18] it was 23.8 µM (inactive); in [3] it was 21 µM (inactive); in [20] it was 33.9 µM (inactive). In addition, the GI50 in assay [15] was 69.7 µM (inactive); in assay [7] it was 16.6 µM (inactive); in assay [9], 42.8 µM (inactive); in [17], 21.5 µM (inactive); in assay [11], 21.9 µM (inactive).

`Nc1nc2ccc3ccccc3c2[nH]1`: the GI50 in [1], in assay [2], in assay [14], in assay [3], in assay [15] and in [4] was > 10 µM (inactive) in each case. Besides, the GI50 was > 10 µM (inactive) in assay [5]; > 10 µM (inactive) in assay [6]; 8.51 µM (inactive) in [7]; > 10 µM (inactive) in assay [8]; > 10 µM (inactive) in assay [16]; > 10 µM (inactive) in [9]. The GI50 in assay [10], in assay [17], in [11] and in assay [12] was > 10 µM (inactive) throughout.

Turning to `CN(C)CCOc1cc2c(c3ccccc13)-c1ccccc1C2O` (stereo unspecified), the GI50 in assay [1] was 15 µM (inactive); in assay [2], 15.5 µM (inactive); in assay [14], 12.9 µM (inactive); in assay [18], 15 µM (inactive); in assay [3] it was 14.4 µM (inactive); in [19], 14.8 µM (inactive). Besides, the GI50 in assay [20] is 15.6 µM (inactive); in assay [4], 12.8 µM (inactive); in assay [7], 13.7 µM (inactive); in assay [8], 3.49 µM (inactive); in assay [16] it was 15.6 µM (inactive); in [9], 17.9 µM (inactive). Moreover, the GI50 in assay [17] was 14.3 µM (inactive).

In the case of `CS(C)(=O)=Nn1c(=O)n2n(c1=O)C1c3ccccc3C2c2ccccc21`, the GI50 in [1], in assay [2], in assay [14], in [15], in [4] and in assay [5] was > 100 µM (inactive) throughout. Besides, the GI50 in [6], in assay [8], in [16], in assay [10], in assay [17] and in assay [11] was > 100 µM (inactive) in each case. Also, the GI50 in assay [12] is > 100 µM (inactive).

For `C1CSCCSCCSCCSC1`, the GI50 in assay [1], in assay [2], in [13], in assay [14], in assay [3] and in [15] was > 100 µM (inactive) in each case. Besides, the GI50 in assay [4], in [5], in [6], in [7], in assay [8] and in [16] was > 100 µM (inactive) throughout. The GI50 in assay [9], in assay [10], in assay [17] and in [12] was > 100 µM (inactive) in each case.

`O=C(NNC(=S)Nc1ccccc1)c1nsc2ccccc12`: the GI50 was 28.8 µM (inactive) in assay [2]; 17.3 µM (inactive) in assay [18]; 55 µM (inactive) in assay [3]; 10.3 µM (inactive) in [19]; 30.8 µM (inactive) in assay [20]; 14.3 µM (inactive) in [15]. Further, the GI50 in assay [16] was 10.3 µM (inactive); in [9], 96.8 µM (inactive); in assay [17], 31.3 µM (inactive); in assay [11], 22 µM (inactive).

With `CSC1SCC2C(=O)N(C)C(C(C)C)C(=O)OCC(NC(=O)c3cnc4ccccc4n3)C(=O)NC(C)C(=O)N(C)C1C(=O)N(C)C(C(C)C)C(=O)OCC(NC(=O)c1cnc3ccccc3n1)C(=O)NC(C)C(=O)N2C` (stereo unspecified), the GI50 in assay [1] is 0.0075 µM (active); in assay [2], 0.0075 µM (active); in assay [13], 0.00158 µM (active); in [14], 0.0075 µM (active); in assay [18], 0.0075 µM (active); in assay [3], 0.0075 µM (active). For the same compound, the GI50 was 0.0075 µM (active) in [19]; 0.0075 µM (active) in assay [20]; 0.000828 µM (active) in [15]; 0.0075 µM (active) in assay [4]; 0.000906 µM (active) in assay [5]; 0.00105 µM (active) in [6]. Besides, the GI50 in assay [7] was 0.0075 µM (active); in [8], 0.0454 µM (active); in [16], 0.0075 µM (active); in [9] it was 0.0075 µM (active); in [10], 0.000993 µM (active); in assay [11], 0.000171 µM (active). In assay [12], the GI50 is 0.000391 µM (active).

For the compound `CN(C)C(=O)Oc1c(Br)cc(Br)cc1C(=O)OCc1ccccc1`, the GI50 in assay [1] was 23 µM (inactive); in [2] it was 28.1 µM (inactive); in assay [14], 23.3 µM (inactive); in assay [18], 17.3 µM (inactive); in assay [3], 36.1 µM (inactive); in assay [19], 33.2 µM (inactive). Besides, the GI50 in assay [20] is 22.8 µM (inactive); in assay [4], 26.4 µM (inactive); in assay [7], 28.7 µM (inactive); in [8] it was 18.5 µM (inactive); in assay [16], 19.1 µM (inactive); in assay [9], 33 µM (inactive). Moreover, in [17], the GI50 was 26.6 µM (inactive).

Take `O=C(CCCn1cnc([N+](=O)[O-])n1)NCCn1ccnc1[N+](=O)[O-]`: the GI50 in assay [2], in assay [13], in assay [14], in assay [15], in assay [4] and in [7] was > 100 µM (inactive) each time. Moreover, the GI50 in [16], in [9], in [10], in assay [11] and in assay [12] was > 100 µM (inactive) each time.

`COc1cc([C@@H]2c3cc4c(cc3[C@H](O)[C@H]3COC(=O)[C@H]23)OCO4)cc(OC)c1OC` [PODOFILOX]: the GI50 in assay [1] is < 0.005 µM (active); in [13], 0.0232 µM (active); in assay [14] it was 0.0897 µM (active); in assay [18], 0.01 µM (active); in assay [19], > 100 µM (inactive); in [4], < 0.005 µM (active). For the same compound, the GI50 in [5], in assay [6], in assay [7], in [8], in assay [10] and in assay [17] was < 0.005 µM (active) in each case. Further, the GI50 was < 0.005 µM (active) in assay [11] and 0.5 µM (active) in assay [12].
